Results as given in publication PMC4400119 (Cancer chemotherapy and pharmacology, 2014).
Where two headings read alike, the source gives them in different places.

What was measured:
NCI-60 panel [1] = conditions: average response from all cell lines tested, cited from earlier work; for GI50: read-out: Potency, Mean GI50
SKBR3 = experiment: MTT cell viability assay, SKBR3; assay type: cell-based; conditions: Homo sapiens, SK-BR-3, 72 h, read-out: EC50 cell viability, Breast SKBR3
HepG2 [2] = experiment: Caspase-Glo 3/7 induction, HepG2; assay type: cell-based, human
Huh-7 [3] = experiment: Caspase-Glo 3/7 induction, Huh-7; assay type: cell-based, human
PC-3 = experiment: MTT cell viability assay, PC-3; assay type: cell-based; conditions: Homo sapiens, PC-3, 72 h, read-out: EC50 cell viability, Prostate PC-3
[4] = target: soluble epoxide hydrolase (sEH); conditions: read-out: IC50 against sEH; cited from earlier work
Raf-1 kinase = conditions: read-out: IC50 recombinant Raf-1 kinase inhibition; cited from earlier work
ACHN = experiment: MTT cell viability assay, ACHN; assay type: cell-based; conditions: Homo sapiens, 72 h, read-out: EC50 cell viability, Kidney ACHN
T47D = experiment: MTT cell viability assay, T47D; assay type: cell-based; conditions: Homo sapiens, 72 h, read-out: EC50 cell viability, Breast T47D
HepG2 cells [5] = experiment: Mitochondrial membrane depolarization and AIF release; assay type: cell-based, human; conditions: 30 μM, 6 h
HepG2 cells [6] = experiment: Cell viability with pan-caspase inhibitor Z-VAD-FMK co-treatment; assay type: cell-based, human; conditions: Z-VAD-FMK 20 μM pre-incubation 60 min, then 30 μM compound for 24 h
Huh-7 [7] = experiment: MTT cell viability assay, Huh-7; assay type: cell-based; conditions: Homo sapiens, Huh-7, 72 h, read-out: EC50 cell viability, Liver Huh-7
HepG2 [8] = experiment: MTT cell viability assay, HepG2; assay type: cell-based, human
STAT3 phosphorylation = experiment: Western blot, STAT3 phosphorylation; assay type: cell-based, human; conditions: 10 μM, 24 h exposure
HepG2 cells [9] = experiment: Cell cycle analysis; assay type: cell-based, human; conditions: 30 μM, 24-h exposure
[10] = Pharmacokinetic study, cassette oral administration in mice; assay type: in vivo; conditions: oral 1 mg/kg
NCI-60 panel [11] = conditions: average response from all cell lines tested
EPHA1 = target: T1, EPHA1 (Homo sapiens, UniProt P21709); experiment: KinaseSeeker kinase screen, EPHA1; assay type: binding; conditions: 10 μM, compared with sorafenib
T1 sequence (P21709 26-976): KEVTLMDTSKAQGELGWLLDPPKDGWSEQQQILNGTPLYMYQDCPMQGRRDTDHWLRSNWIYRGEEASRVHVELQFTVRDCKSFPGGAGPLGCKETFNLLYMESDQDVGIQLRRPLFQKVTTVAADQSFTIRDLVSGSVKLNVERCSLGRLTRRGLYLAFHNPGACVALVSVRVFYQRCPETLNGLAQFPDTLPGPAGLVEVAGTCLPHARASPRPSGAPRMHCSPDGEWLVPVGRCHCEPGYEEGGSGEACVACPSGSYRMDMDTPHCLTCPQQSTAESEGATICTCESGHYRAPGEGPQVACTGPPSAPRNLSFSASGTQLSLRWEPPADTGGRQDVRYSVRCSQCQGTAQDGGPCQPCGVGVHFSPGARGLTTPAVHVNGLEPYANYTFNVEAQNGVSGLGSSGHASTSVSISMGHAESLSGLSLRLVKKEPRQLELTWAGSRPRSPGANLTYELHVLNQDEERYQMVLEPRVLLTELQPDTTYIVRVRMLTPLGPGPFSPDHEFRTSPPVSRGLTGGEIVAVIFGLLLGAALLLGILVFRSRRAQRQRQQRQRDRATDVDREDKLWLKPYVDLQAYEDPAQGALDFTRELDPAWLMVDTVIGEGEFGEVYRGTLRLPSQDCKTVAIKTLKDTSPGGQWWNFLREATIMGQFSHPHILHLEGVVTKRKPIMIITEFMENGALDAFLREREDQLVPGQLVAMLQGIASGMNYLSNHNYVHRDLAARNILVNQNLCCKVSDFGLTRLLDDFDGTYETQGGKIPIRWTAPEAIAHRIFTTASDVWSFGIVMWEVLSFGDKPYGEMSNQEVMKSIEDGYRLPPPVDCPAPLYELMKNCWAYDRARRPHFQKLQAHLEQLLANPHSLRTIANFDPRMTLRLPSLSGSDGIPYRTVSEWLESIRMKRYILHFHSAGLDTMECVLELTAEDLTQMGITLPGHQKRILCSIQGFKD

FGFR2 = FGFR2 (Homo sapiens, UniProt P21802); experiment: KinaseSeeker kinase screen, FGFR2; assay type: binding; conditions: 10 μM, compared with sorafenib
[12] = test system: oncogenic b-Raf (V600E) kinase; conditions: relative to sorafenib; cited from earlier work
KM12 (colon cancer) = experiment: NCI-60 human tumor cell line screen, KM12; assay type: cell-based

FGFR2, sequence (P21802 22-821): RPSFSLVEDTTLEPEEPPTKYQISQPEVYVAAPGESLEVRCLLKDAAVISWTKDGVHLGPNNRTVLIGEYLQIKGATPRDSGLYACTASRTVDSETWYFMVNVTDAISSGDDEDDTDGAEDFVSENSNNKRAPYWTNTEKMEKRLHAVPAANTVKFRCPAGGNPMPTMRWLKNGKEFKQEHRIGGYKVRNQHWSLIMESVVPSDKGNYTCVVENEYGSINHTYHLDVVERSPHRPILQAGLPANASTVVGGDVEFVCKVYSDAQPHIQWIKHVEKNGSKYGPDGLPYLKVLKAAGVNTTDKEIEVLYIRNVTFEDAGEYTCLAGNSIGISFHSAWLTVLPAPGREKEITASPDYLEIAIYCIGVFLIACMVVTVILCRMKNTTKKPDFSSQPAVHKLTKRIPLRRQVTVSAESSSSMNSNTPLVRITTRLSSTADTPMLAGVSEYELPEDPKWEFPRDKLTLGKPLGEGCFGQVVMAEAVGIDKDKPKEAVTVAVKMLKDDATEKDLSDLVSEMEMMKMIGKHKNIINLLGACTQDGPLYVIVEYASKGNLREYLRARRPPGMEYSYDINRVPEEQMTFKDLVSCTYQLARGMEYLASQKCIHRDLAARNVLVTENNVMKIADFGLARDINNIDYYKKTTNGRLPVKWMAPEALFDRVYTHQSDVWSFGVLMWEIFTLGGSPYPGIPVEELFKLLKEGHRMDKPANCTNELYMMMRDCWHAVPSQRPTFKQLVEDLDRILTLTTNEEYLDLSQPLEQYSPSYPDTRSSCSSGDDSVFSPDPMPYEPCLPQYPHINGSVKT

Row | SMILES | Potency, Mean TGI50 (NCI-60 panel [1]) [µM] | GI50 (NCI-60 panel [1]) [µM] | EC50 (SKBR3) [µM] | EC50 (PC-3) [µM] | IC50 (Raf-1 kinase) [µM] | EC50 (ACHN) [µM] | EC50 (T47D) [µM] | mitochondrial membrane depolarization and release of AIF (HepG2 cells [5]) | effect of Z-VAD-FMK on compound-induced cell death (HepG2 cells [6]) | EC50 (Huh-7 [7]) [µM] | also measured
1 | Cc1ccc(NC(=O)c2ccc(CN3CCN(C)CC3)cc2)cc1Nc1nccc(-c2cccnc2)n1 [Imatinib (Gleevac®)] | 43 | 15 |  |  |  |  |  |  |  |  | 
2 | C#Cc1cccc(Nc2ncnc3cc(OCCOC)c(OCCOC)cc23)c1 [Erlotinib (Tarceva®)] | 59 | 5.5 |  |  |  |  |  |  |  |  | 
3 | CNC(=O)c1cc(Oc2ccc(NC(=O)Nc3ccc(Cl)c(C(F)(F)F)c3)cc2)ccn1 [Sorafenib] | 6.0 | 1.9 | 6.5 ± 0.5 | 5.5 ± 0.8 | […] | 4 ± 0.5 | 3 ± 0.5 | observed | no protective effect | 4.2 ± 0.5 | lowest level at which caspase activation was observable (HepG2 [2]; HepG2, 72-h incubation): 0.1 µM; lowest level at which caspase activation was observable (Huh-7 [3]; Huh-7, 72-h incubation): 0.1 µM; IC50 [4]: 0.012 µM
4 | CCN(CC)CCNC(=O)c1c(C)[nH]c(/C=C2\C(=O)Nc3ccc(F)cc32)c1C [Sunitinib] | 9.6 | 2.2 | 10 ± 0.9 | 8 ± 0.5 |  | 8 ± 1 | 12 ± 1 |  |  | 8 ± 0.9 | EC50 (HepG2 [8]; Homo sapiens, HepG2, 72 h, read-out: EC50 cell viability, Liver HepG2): 7.5 ± 0.8 µM
5 | CNC(=O)c1cc(O[C@H]2CC[C@H](NC(=O)Nc3ccc(Cl)c(C(F)(F)F)c3)CC2)ccn1 [t-CUPM] |  |  |  |  | 0.075 |  |  | observed | no protective effect |  | suppression of STAT3 phosphorylation (STAT3 phosphorylation): not as effective as sorafenib; effect on cell cycle progression (HepG2 cells [9]): arrest in G0/G1 transition; caspase 3/7 induction (HepG2 [2]; HepG2, 25 μM, 72-h incubation): levels of caspase induction similar to sorafenib; Cmax compared with sorafenib [10]: higher Cmax; AUCt compared with sorafenib ([10]; 0.5 to 48 h): significantly higher AUCt; blood levels relative to sorafenib ([10]; from 0.5 to 48 h): tenfold; EC50 relative to that of sorafenib (HepG2 [8]; cell viability, hepatoma cell lines HepG2 and Huh-7): < twofold; Potency, Mean TGI50 (NCI-60 panel [11]): 34 µM; GI50 (NCI-60 panel [11]; read-out: Potency, Mean GI50): 9 µM; caspase 3/7 induction (Huh-7 [3]; Huh-7, 25 μM, 72-h incubation): levels of caspase induction similar to sorafenib; kinase inhibitory activity toward EPHA1 (EPHA1): reduced its kinase inhibitory activity; kinase inhibitory activity toward FGFR2 (FGFR2): reduced its kinase inhibitory activity; loss in the activity toward oncogenic b-Raf (V600E) kinase [12]: 40 fold; GI50 (KM12 (colon cancer)): 0.64 µM
6 | COc1cc2ncnc(Nc3ccc(F)c(Cl)c3)c2cc1OCCCN1CCOCC1 [Gefitinib (Iressa®)] | 19 | 3.2 |  |  |  |  |  |  |  |  | 
